The record followed here is ChEMBL document CHEMBL2413040, “Ligand/kappa-opioid receptor interactions: insights from the X-ray crystal structure” (Eur J Med Chem, 2013).

The nature of the test: Binding affinity to kappa opioid receptor in guinea pig cerebral cortex after 2.5 hrs. In kind it is tissue-based, Cavia porcellus.

Compound `CC[C@H](C)[C@@H](NC(=O)[C@H](Cc1ccccc1)NC(=O)[C@@H](N)Cc1ccccc1)C(=O)N[C@@H](CC1CCCCC1)C(N)=O` gave a Ki of 64 nM.

As for `CCCC[C@H](N)C(=O)N[C@@H](Cc1ccc2ccccc2c1)C(=O)N[C@@H](C(=O)N[C@@H](CC1CCCCC1)C(N)=O)[C@@H](C)CC`, the Ki amounted to 56 nM.

`CCCC[C@H](N)C(=O)N[C@@H](Cc1ccc2ccccc2c1)C(=O)N[C@H](CCCC)C(=O)N[C@@H](CC1CCCCC1)C(N)=O` yielded a Ki of 27 nM.

Regarding `CCCC[C@H](N)C(=O)N[C@@H](Cc1ccccc1)C(=O)N[C@H](CCCC)C(=O)N[C@@H](CC1CCCCC1)C(N)=O`, the inhibitory constant (Ki) was 71 nM.

The compound `CCCC[C@H](N)C(=O)N[C@@H](Cc1ccc2ccccc2c1)C(=O)N[C@H](Cc1c[nH]c2ccccc12)C(=O)N[C@@H](CC1CCCCC1)C(N)=O` came in with a Ki of 10000 nM.

Take `CCCC[C@H](N)C(=O)N[C@@H](Cc1ccccc1)C(=O)N[C@@H](C(=O)N[C@@H](CC1CCCCC1)C(N)=O)[C@@H](C)CC`: the affinity corresponds to a Ki of 341 nM. This Ki lies about 29-fold lower than the previous one.

Compound `NC(=O)[C@H](CC1CCCCC1)NC(=O)[C@@H](Cc1c[nH]c2ccccc12)NC(=O)[C@H](Cc1ccc2ccccc2c1)NC(=O)[C@@H](N)Cc1ccccc1` had a Ki of 6000 nM.

`CCCC[C@H](N)C(=O)N[C@@H](Cc1ccc2ccccc2c1)C(=O)N[C@H](CCCC)C(=O)N[C@@H](CCCNC(=N)N)C(N)=O` registered an inhibition constant Ki of 2.3 nM.

In turn, `CCCC[C@@H](NC(=O)[C@H](Cc1ccc2ccccc2c1)NC(=O)[C@@H](N)Cc1ccccc1)C(=O)N[C@@H](CCCNC(=N)N)C(N)=O` showed a Ki of 7.1 nM.

As for `CCCC[C@@H](NC(=O)[C@H](Cc1ccccc1)NC(=O)[C@@H](N)Cc1ccccc1)C(=O)N[C@@H](CCCNC(=N)N)C(N)=O`, affinity was put at a Ki of 1.2 nM. This Ki is about 5.9-fold lower than that of the compound before.

`CCCC[C@H](N)C(=O)N[C@@H](Cc1ccccc1)C(=O)N[C@H](Cc1c[nH]c2ccccc12)C(=O)N[C@@H](CC1CCCCC1)C(N)=O` returned a Ki of 10000 nM. Compared with the last compound, the Ki is about 8300-fold higher.

`CCCC[C@H](N)C(=O)N[C@@H](Cc1ccc2ccccc2c1)C(=O)N[C@@H](C(=O)N[C@@H](CCCNC(=N)N)C(N)=O)[C@@H](C)CC` displayed a Ki of 1.5 nM.

Compound `N=C(N)NCCC[C@H](NC(=O)[C@@H](Cc1c[nH]c2ccccc12)NC(=O)[C@H](Cc1ccc2ccccc2c1)NC(=O)[C@@H](N)Cc1ccccc1)C(N)=O` came in with a Ki of 1150 nM.

`CC[C@H](C)[C@@H](NC(=O)[C@H](Cc1ccc2ccccc2c1)NC(=O)[C@@H](N)Cc1ccccc1)C(=O)N[C@@H](CC1CCCCC1)C(N)=O` displayed a Ki of 53 nM. Against the preceding compound, the Ki is about 22-fold lower.

For `NC(=O)[C@H](CC1CCCCC1)NC(=O)[C@@H](Cc1c[nH]c2ccccc12)NC(=O)[C@H](Cc1ccccc1)NC(=O)[C@@H](N)Cc1ccccc1`, the Ki was 10000 nM.

For the compound `CCCC[C@@H](NC(=O)[C@H](Cc1ccccc1)NC(=O)[C@@H](N)Cc1ccccc1)C(=O)N[C@@H](CC1CCCCC1)C(N)=O`, the Ki was 26 nM.

`CC[C@H](C)[C@@H](NC(=O)[C@H](Cc1ccc2ccccc2c1)NC(=O)[C@@H](N)Cc1ccccc1)C(=O)N[C@@H](CCCNC(=N)N)C(N)=O` had a Ki of 3.6 nM.

In turn, `CCCC[C@@H](NC(=O)[C@H](Cc1ccc2ccccc2c1)NC(=O)[C@@H](N)Cc1ccccc1)C(=O)N[C@@H](CC1CCCCC1)C(N)=O` displayed a Ki of 33 nM. Compared with the last compound, the Ki is about 9.2-fold higher.

In the case of `CCCC[C@H](N)C(=O)N[C@@H](Cc1ccccc1)C(=O)N[C@H](CCCC)C(=O)N[C@@H](CCCNC(=N)N)C(N)=O`, affinity was put at a Ki of 4.2 nM.

`CCCC[C@H](N)C(=O)N[C@@H](Cc1ccccc1)C(=O)N[C@@H](C(=O)N[C@@H](CCCNC(=N)N)C(N)=O)[C@@H](C)CC` showed a Ki of 9.3 nM.

For the compound `CC[C@H](C)[C@@H](NC(=O)[C@H](Cc1ccccc1)NC(=O)[C@@H](N)Cc1ccccc1)C(=O)N[C@@H](CCCNC(=N)N)C(N)=O`, the Ki is 2.4 nM.

Regarding `CCCC[C@H](N)C(=O)N[C@@H](Cc1ccc2ccccc2c1)C(=O)N[C@H](Cc1c[nH]c2ccccc12)C(=O)N[C@@H](CCCNC(=N)N)C(N)=O`, the affinity corresponds to a Ki of 1760 nM. Against the preceding compound, the Ki is about 730-fold higher.

Regarding `N=C(N)NCCC[C@H](NC(=O)[C@@H](Cc1c[nH]c2ccccc12)NC(=O)[C@H](Cc1ccccc1)NC(=O)[C@@H](N)Cc1ccccc1)C(N)=O`, the Ki is 1140 nM.

`CCCC[C@H](N)C(=O)N[C@@H](Cc1ccccc1)C(=O)N[C@H](Cc1c[nH]c2ccccc12)C(=O)N[C@@H](CCCNC(=N)N)C(N)=O` had a Ki of 4550 nM.

Usually Ki stands for the equilibrium dissociation constant of an inhibitor or competing ligand from its target. Higher therefore signals a looser hold on the target.
